Reference: patent publication US11098055B2, “Ester ACC inhibitors and uses thereof” (Gilead Apollo, LLC, priority 2015, dated 2021)
Converted amounts (≈) assume the structure as drawn. Like-named read-outs stand apart in the source and are kept apart here.

Experiments:
[1] = tested on: Phytophthora capsici (Pc); test: Growth inhibition assay of fungal pathogens; assay type: cell-based; conditions: 48 h, read-out: Concentration at 90% Inhibition Pc
In short: (§1)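 Read-out was OD600 with visual scoring at 48 h, expressed as percent inhibition relative to wells containing 2% DMSO alone. Test wells held spores in 17% V8 liquid medium, with compound at final levels of either 50, 10, 2 ppm or 2, 0.4, 0.08 ppm.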

[2] = tested on: Collectotrichum graminicola (Cg); test: Growth inhibition assay of fungal pathogens; assay type: cell-based; conditions: 48 h, read-out: Concentration at 90% Inhibition Cg
In short: as §1

[3] = tested on: Rhizoctonia solani (Rs); test: Growth inhibition assay of fungal pathogens; assay type: cell-based; conditions: 48 h, read-out: Concentration at 90% Inhibition Rs
In short: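 Spores, or mycelial plugs for Rhizoctonia, in 17% V8 medium (¼ PDB for plugs) were exposed to compound at final 50, 10 and 2 ppm or 2, 0.4 and 0.08 ppm, with 2% DMSO. Growth was read by OD600 with blank subtraction plus visual rating; percent inhibition at 48 h is relative to 2% DMSO control.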

[4] = tested on: Fusarium virguliforme (Fv); test: Growth inhibition assay of fungal pathogens; assay type: cell-based; conditions: 48 h, read-out: Concentration at 90% Inhibition Fv
In short: as §1

[5] = tested on: Fusarium moniliforme (Fm); test: Growth inhibition assay of fungal pathogens; assay type: cell-based; conditions: Fusarium verticillioides, 48 h, read-out: Concentration at 90% Inhibition Fm
In short: as §1

[6] = tested on: Botrtyis cinerea (Bc); test: Growth inhibition assay of fungal pathogens; assay type: cell-based; conditions: 48 h, read-out: Concentration at 90% Inhibition Bc
In short: as §1

[7] = tested on: Diplodia maydis (Dm); test: Growth inhibition assay of fungal pathogens; assay type: cell-based; conditions: Stenocarpella maydis, 48 h, read-out: Concentration at 90% Inhibition Dm
In short: as §1

[8] = tested on: Septoria tritici (St); test: Growth inhibition assay of fungal pathogens; assay type: cell-based; conditions: Zymoseptoria tritici, 48 h, read-out: Concentration at 90% Inhibition St
In short: as §1

[9] = target: fACC2 (UniProt Q00955); test: In vitro ACC2 inhibition assay (ADP-Glo), fungal ACC2; assay type: biochemical
Chain of fACC2 (Q00955 whole entry): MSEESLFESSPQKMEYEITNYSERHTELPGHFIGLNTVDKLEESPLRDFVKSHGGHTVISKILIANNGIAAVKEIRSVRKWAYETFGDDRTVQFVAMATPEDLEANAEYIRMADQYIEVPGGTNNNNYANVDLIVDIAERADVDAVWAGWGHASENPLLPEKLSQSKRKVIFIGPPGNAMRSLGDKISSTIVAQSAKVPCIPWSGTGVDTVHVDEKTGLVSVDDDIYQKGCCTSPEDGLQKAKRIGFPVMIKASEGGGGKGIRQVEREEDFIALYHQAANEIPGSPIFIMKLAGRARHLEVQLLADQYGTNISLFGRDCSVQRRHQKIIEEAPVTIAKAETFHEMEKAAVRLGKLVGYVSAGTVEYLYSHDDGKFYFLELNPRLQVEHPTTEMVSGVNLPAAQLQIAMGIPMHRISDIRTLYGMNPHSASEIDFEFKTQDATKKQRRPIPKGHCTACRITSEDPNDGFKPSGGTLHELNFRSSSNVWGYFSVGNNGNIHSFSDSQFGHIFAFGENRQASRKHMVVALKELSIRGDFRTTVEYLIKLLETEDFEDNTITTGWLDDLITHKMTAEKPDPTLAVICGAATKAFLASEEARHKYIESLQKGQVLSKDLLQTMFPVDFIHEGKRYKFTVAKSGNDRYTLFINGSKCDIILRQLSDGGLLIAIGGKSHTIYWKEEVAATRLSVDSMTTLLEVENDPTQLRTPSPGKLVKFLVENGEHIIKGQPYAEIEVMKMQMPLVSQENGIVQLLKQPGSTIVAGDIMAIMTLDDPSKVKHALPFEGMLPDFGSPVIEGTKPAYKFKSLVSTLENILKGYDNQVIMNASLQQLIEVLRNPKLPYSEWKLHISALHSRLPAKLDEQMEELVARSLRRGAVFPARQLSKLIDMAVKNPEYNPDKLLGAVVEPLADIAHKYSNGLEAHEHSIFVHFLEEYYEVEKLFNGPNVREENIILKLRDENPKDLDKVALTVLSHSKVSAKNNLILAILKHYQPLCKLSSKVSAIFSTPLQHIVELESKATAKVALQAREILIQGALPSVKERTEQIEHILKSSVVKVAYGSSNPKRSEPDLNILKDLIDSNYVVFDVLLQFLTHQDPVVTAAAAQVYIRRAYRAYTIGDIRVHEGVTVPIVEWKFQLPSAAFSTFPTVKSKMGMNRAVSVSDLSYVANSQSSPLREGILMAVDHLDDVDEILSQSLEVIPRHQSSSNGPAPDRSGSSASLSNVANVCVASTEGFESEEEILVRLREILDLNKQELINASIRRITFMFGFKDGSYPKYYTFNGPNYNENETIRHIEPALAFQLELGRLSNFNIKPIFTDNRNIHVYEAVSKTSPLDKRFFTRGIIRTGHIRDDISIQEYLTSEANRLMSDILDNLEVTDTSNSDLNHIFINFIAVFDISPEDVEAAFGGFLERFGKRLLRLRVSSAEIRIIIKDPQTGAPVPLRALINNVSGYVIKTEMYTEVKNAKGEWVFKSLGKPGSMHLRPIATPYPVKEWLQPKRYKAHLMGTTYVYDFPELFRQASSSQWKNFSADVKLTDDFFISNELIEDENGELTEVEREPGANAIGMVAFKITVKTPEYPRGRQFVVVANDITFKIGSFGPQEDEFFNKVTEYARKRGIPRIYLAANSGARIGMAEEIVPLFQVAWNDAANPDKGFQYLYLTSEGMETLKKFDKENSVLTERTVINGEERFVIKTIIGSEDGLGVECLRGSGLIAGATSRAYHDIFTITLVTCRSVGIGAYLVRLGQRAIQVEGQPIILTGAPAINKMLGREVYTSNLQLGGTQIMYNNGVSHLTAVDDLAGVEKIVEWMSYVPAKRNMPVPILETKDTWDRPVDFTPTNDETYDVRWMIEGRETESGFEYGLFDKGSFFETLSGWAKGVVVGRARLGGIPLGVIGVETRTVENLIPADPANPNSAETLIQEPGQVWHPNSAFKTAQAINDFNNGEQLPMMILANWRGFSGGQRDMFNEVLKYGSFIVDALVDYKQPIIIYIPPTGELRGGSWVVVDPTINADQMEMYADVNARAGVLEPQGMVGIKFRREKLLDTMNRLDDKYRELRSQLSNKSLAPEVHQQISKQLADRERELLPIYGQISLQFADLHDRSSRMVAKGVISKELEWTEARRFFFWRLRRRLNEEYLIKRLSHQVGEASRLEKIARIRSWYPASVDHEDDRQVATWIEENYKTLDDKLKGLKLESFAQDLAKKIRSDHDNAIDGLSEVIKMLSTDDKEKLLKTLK
In short: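 ADP-Glo luminescent ADP detection with 5 nM ACC2, 20 μM ATP, 20 μM acetyl-CoA, 12 mM NaHCO3, 2 mM DTT, 5% DMSO; compound (30 μM-0.00051 μM, 11 points) preincubated 15 min, reaction 60 min at room temperature. Percent inhibition against DMSO and positive controls; IC50 by four-parameter nonlinear fit.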

Row | Structure (SMILES) | IC90 ([1]; Table 4b) | IC90 ([2]; Table 4b) | IC90 ([3]; Table 4b) | IC90 ([4]; Table 4b) | IC90 ([5]; Table 4b) | IC90 ([6]; Table 4b) | IC90 ([7]; Table 4b) | IC90 ([8]; Table 4b) | IC50 ([9]; Table 2b (additional results)) | IC90 ([1]; Table 4a) | IC90 ([2]; Table 4a) | IC90 ([3]; Table 4a) | IC90 ([4]; Table 4a) | IC90 ([5]; Table 4a) | IC90 ([6]; Table 4a) | IC90 ([7]; Table 4a) | IC90 ([8]; Table 4a) | IC50 ([9]; Table 2a)
1 | CCOC(=O)c1sc2c(c1C)c(=O)n(C(C)(C)C(=O)NC(C)C)c(=O)n2C[C@H](OCCC#N)c1ccccc1OC [Compound I-31, ethyl (R)-1-(2-(2-cyanoethoxy)-2-(2-methoxyphenyl)ethyl)-3-(1-(isopropylamino)-2-methyl-1-oxopropan-2-yl)-5-methyl-2,4-dioxo-1,2,3,4-tetrahydrothieno[2,3-d]pyrimidine-6-carboxylate] | 2 µg/mL (≈ 3.42 µM) | 0.4 µg/mL (≈ 0.684 µM) | 2 µg/mL (≈ 3.42 µM) | 0.4 µg/mL (≈ 0.684 µM) | 0.08 µg/mL (≈ 0.137 µM) | 0.4 µg/mL (≈ 0.684 µM) | 0.4 µg/mL (≈ 0.684 µM) | 10 µg/mL (≈ 17.1 µM) | 0.3 to 3 nM | – | – | – | – | – | – | – | – | –
2 | CCOC(=O)c1sc2c(c1C)c(=O)n(C(C)(C)C(=O)N1CCCCC1)c(=O)n2C[C@H](OC(C)C)c1ccccc1OC [Compound I-6, (R)-ethyl 1-(2-isopropoxy-2-(2-methoxyphenyl)ethyl)-5-methyl-3-(2-methyl-1-oxo-1-(piperidin-1-yl)propan-2-yl)-2,4-dioxo-1,2,3,4-tetrahydrothieno[2,3-d]pyrimidine-6-carboxylate] | ≥ 50 µg/mL | 0.4 µg/mL (≈ 0.667 µM) | 0.4 µg/mL (≈ 0.667 µM) | 0.4 µg/mL (≈ 0.667 µM) | 0.08 µg/mL (≈ 0.133 µM) | 0.4 µg/mL (≈ 0.667 µM) | 0.4 µg/mL (≈ 0.667 µM) | 2 µg/mL (≈ 3.33 µM) | 0.3 to 3 nM | ≥ 50 µg/mL | 0.4 µg/mL (≈ 0.667 µM) | 0.4 µg/mL (≈ 0.667 µM) | 0.4 µg/mL (≈ 0.667 µM) | 0.08 µg/mL (≈ 0.133 µM) | 0.4 µg/mL (≈ 0.667 µM) | 0.4 µg/mL (≈ 0.667 µM) | 10 µg/mL (≈ 16.7 µM) | 0.6 to 3 nM
3 | CCOC(=O)c1sc2c(c1C)c(=O)n([C@H](C)C(=O)N1CCCC1)c(=O)n2C[C@H](OCCC#N)c1cc(F)ccc1OC [Compound I-24, ethyl 1-((R)-2-(2-cyanoethoxy)-2-(5-fluoro-2-methoxy-phenyl)ethyl)-5-methyl-2,4-dioxo-3-((R)-1-oxo-1-(pyrrolidin-1-yl)propan-2-yl)-1,2,3,4-tetrahydrothieno[2,3-d]pyrimidine-6-carboxylate] | ≥ 50 µg/mL | 2 µg/mL (≈ 3.33 µM) | 0.08 µg/mL (≈ 0.133 µM) | 2 µg/mL (≈ 3.33 µM) | 0.08 µg/mL (≈ 0.133 µM) | 2 µg/mL (≈ 3.33 µM) | 2 µg/mL (≈ 3.33 µM) | ≥ 50 µg/mL | 0.3 to 3 nM | – | – | – | – | – | – | – | – | –
4 | CCOC(=O)c1sc2c(c1C)c(=O)n(C(C)(C)C(N)=O)c(=O)n2C[C@H](OCCOC)c1cc(F)ccc1OC [Compound I-10, (R)-ethyl 3-(1-amino-2-methyl-1-oxopropan-2-yl)-1-(2-(5-fluoro-2-methoxyphenyl)-2-(2-methoxyethoxy)ethyl)-5-methyl-2,4-dioxo-1,2,3,4-tetrahydrothieno[2,3-d]pyrimidine-6-carboxylate] | ≥ 50 µg/mL | ≥ 50 µg/mL | ≥ 50 µg/mL | ≥ 50 µg/mL | 10 µg/mL (≈ 17.7 µM) | ≥ 50 µg/mL | ≥ 50 µg/mL | ≥ 50 µg/mL | 3 to 10 nM | ≥ 50 µg/mL | ≥ 50 µg/mL | ≥ 50 µg/mL | ≥ 50 µg/mL | ≥ 50 µg/mL | ≥ 50 µg/mL | ≥ 50 µg/mL | ≥ 50 µg/mL | 3 to 10 nM
5 | CCOC(=O)c1sc2c(c1C)c(=O)n(C(C)(C)C(N)=O)c(=O)n2C[C@H](OCCO)c1cc(F)ccc1OC [Compound I-17, (R)-ethyl 3-(1-amino-2-methyl-1-oxopropan-2-yl)-1-(2-(5-fluoro-2-methoxyphenyl)-2-(2-hydroxyethoxy)ethyl)-5-methyl-2,4-dioxo-1,2,3,4-tetrahydro-thieno[2,3-d]pyrimidine-6-carboxylate] | ≥ 50 µg/mL | ≥ 50 µg/mL | 2 µg/mL (≈ 3.63 µM) | ≥ 50 µg/mL | 2 µg/mL (≈ 3.63 µM) | 10 µg/mL (≈ 18.1 µM) | ≥ 50 µg/mL | ≥ 50 µg/mL | 0.3 to 3 nM | ≥ 50 µg/mL | ≥ 50 µg/mL | 2 µg/mL (≈ 3.63 µM) | ≥ 50 µg/mL | 2 µg/mL (≈ 3.63 µM) | ≥ 50 µg/mL | ≥ 50 µg/mL | ≥ 50 µg/mL | 0.6 to 3 nM
6 | CCOC(=O)c1sc2c(c1C)c(=O)n(C(C)(C)C(=O)NC(C)C)c(=O)n2C[C@H](OCCS(C)(=O)=O)c1cc(F)ccc1OC [Compound I-36, ethyl (R)-1-(2-(5-fluoro-2-methoxyphenyl)-2-(2-(methylsulfonyl)ethoxy)ethyl)-3-(1-(isopropylamino)-2-methyl-1-oxopropan-2-yl)-5-methyl-2,4-dioxo-1,2,3,4-tetrahydrothieno[2,3-d]pyrimidine-6-carboxylate] | ≥ 50 µg/mL | 0.4 µg/mL (≈ 0.61 µM) | 0.4 µg/mL (≈ 0.61 µM) | 2 µg/mL (≈ 3.05 µM) | 0.4 µg/mL (≈ 0.61 µM) | 2 µg/mL (≈ 3.05 µM) | 2 µg/mL (≈ 3.05 µM) | ≥ 50 µg/mL | 0.3 to 3 nM | – | – | – | – | – | – | – | – | –
7 | CCOC(=O)c1sc2c(c1C)c(=O)n(C(C)(C)C(=O)N1CCCC1)c(=O)n2C[C@H](OCCO)c1cc(F)ccc1OC [Compound I-12, (R)-ethyl 1-(2-(5-fluoro-2-methoxyphenyl)-2-(2-hydroxy-ethoxy)ethyl)-5-methyl-3-(2-methyl-1-oxo-1-(pyrrolidin-1-yl)propan-2-yl)-2,4-dioxo-1,2,3,4-tetrahydrothieno[2,3-d]pyrimidine-6-carboxylate] | ≥ 50 µg/mL | 0.4 µg/mL (≈ 0.66 µM) | 0.4 µg/mL (≈ 0.66 µM) | 2 µg/mL (≈ 3.3 µM) | 0.4 µg/mL (≈ 0.66 µM) | 2 µg/mL (≈ 3.3 µM) | 2 µg/mL (≈ 3.3 µM) | ≥ 50 µg/mL | 0.3 to 3 nM | ≥ 50 µg/mL | 0.4 µg/mL (≈ 0.66 µM) | 0.4 µg/mL (≈ 0.66 µM) | 2 µg/mL (≈ 3.3 µM) | 0.4 µg/mL (≈ 0.66 µM) | 2 µg/mL (≈ 3.3 µM) | 2 µg/mL (≈ 3.3 µM) | ≥ 50 µg/mL | 0.6 to 3 nM
8 | CCOC(=O)c1sc2c(c1C)c(=O)n(C(C)(C)C(=O)NC(C)C)c(=O)n2C[C@H](OC1CCOCC1)c1ccccc1OC [Compound I-8, (R)-ethyl 3-(1-(isopropylamino)-2-methyl-1-oxopropan-2-yl)-1-(2-(2-methoxyphenyl)-2-((tetrahydro-2H-pyran-4-yl)oxy)ethyl)-5-methyl-2,4-dioxo-1,2,3,4-tetrahydrothieno[2,3-d]pyrimidine-6-carboxylate] | ≥ 50 µg/mL | 2 µg/mL (≈ 3.25 µM) | 10 µg/mL (≈ 16.2 µM) | 2 µg/mL (≈ 3.25 µM) | 0.08 µg/mL (≈ 0.13 µM) | 0.4 µg/mL (≈ 0.65 µM) | 2 µg/mL (≈ 3.25 µM) | ≥ 50 µg/mL | 0.3 to 3 nM | ≥ 50 µg/mL | 2 µg/mL (≈ 3.25 µM) | ≥ 50 µg/mL | 2 µg/mL (≈ 3.25 µM) | 0.08 µg/mL (≈ 0.13 µM) | 0.4 µg/mL (≈ 0.65 µM) | 2 µg/mL (≈ 3.25 µM) | ≥ 50 µg/mL | 0.6 to 3 nM
9 | CCNC(=O)C(C)(C)n1c(=O)c2c(C)c(C(=O)OCC)sc2n(C[C@H](OC(C)C)c2ccccc2OC)c1=O [Compound I-4, (R)-ethyl 3-(1-(ethylamino)-2-methyl-1-oxopropan-2-yl)-1-(2-isopropoxy-2-(2-methoxyphenyl)ethyl)-5-methyl-2,4-dioxo-1,2,3,4-tetrahydrothieno[2,3-d]pyrimidine-6-carboxylate] | ≥ 50 µg/mL | 10 µg/mL (≈ 17.9 µM) | ≥ 50 µg/mL | 2 µg/mL (≈ 3.57 µM) | 0.4 µg/mL (≈ 0.715 µM) | 2 µg/mL (≈ 3.57 µM) | 10 µg/mL (≈ 17.9 µM) | ≥ 50 µg/mL | 3 to 10 nM | ≥ 50 µg/mL | ≥ 50 µg/mL | ≥ 50 µg/mL | 2 µg/mL (≈ 3.57 µM) | 0.4 µg/mL (≈ 0.715 µM) | 2 µg/mL (≈ 3.57 µM) | ≥ 50 µg/mL | ≥ 50 µg/mL | 3 to 10 nM
10 | CCOC(=O)c1sc2c(c1C)c(=O)n(C(C)(C)C(=O)NC(C)C)c(=O)n2CCc1cc(F)ccc1OC [Compound I-40, ethyl 1-(5-fluoro-2-methoxyphenethyl)-3-(1-(isopropylamino)-2-methyl-1-oxopropan-2-yl)-5-methyl-2,4-dioxo-1,2,3,4-tetrahydrothieno[2,3-d]pyrimidine-6-carboxylate] | ≥ 50 µg/mL | 10 µg/mL (≈ 18.7 µM) | ≥ 50 µg/mL | 2 µg/mL (≈ 3.75 µM) | 2 µg/mL (≈ 3.75 µM) | 2 µg/mL (≈ 3.75 µM) | 10 µg/mL (≈ 18.7 µM) | ≥ 50 µg/mL | 3 to 10 nM | – | – | – | – | – | – | – | – | –
11 | CCNC(=O)C(C)(C)n1c(=O)c2c(C)c(C(=O)OCC)sc2n(C[C@H](O)c2cc(F)ccc2OC)c1=O [Compound I-39, ethyl (R)-3-(1-(ethylamino)-2-methyl-1-oxopropan-2-yl)-1-(2-(5-fluoro-2-methoxyphenyl)-2-hydroxyethyl)-5-methyl-2,4-dioxo-1,2,3,4-tetrahydrothieno[2,3-d]pyrimidine-6-carboxylate] | ≥ 50 µg/mL | ≥ 50 µg/mL | 0.08 µg/mL (≈ 0.149 µM) | 2 µg/mL (≈ 3.73 µM) | 2 µg/mL (≈ 3.73 µM) | 10 µg/mL (≈ 18.7 µM) | ≥ 50 µg/mL | ≥ 50 µg/mL | 0.3 to 3 nM | – | – | – | – | – | – | – | – | –
